Experimental data published in patent US5349060A, “Rapamycin 31-ester with N,N-dimethylglycine derivatives useful as immunosuppressive agents” (American Home Products Corporation, priority 1993, dated 1994).
“And” between values parts separate entries of the source, which are not always exact repeats. Equal entries are not always repeated. Structures can show the parent of a compound that is named as a salt.

What was measured:
[1] = system: cells from the thymus of normal BALB/c mice (thymocyte proliferation); assay: comitogen-induced thymocyte proliferation procedure (LAF); assay type: cell-based; conditions: percent change in counts per minute from non-drug treated controls; for percent change in thymocyte proliferation (counts per minute) versus untreated control at 0.01 µM / percent change in thymocyte proliferation (counts per minute) versus untreated control at 0.1 µM: Mus musculus, 72 h, 72 h culture with PHA and IL-1; for percent change in thymocyte proliferation (counts per minute) versus untreated control at 0.01 µM: read-out: Percentage Inhibition in LAF Assay at 10 nM concentration, Analogs; for percent change in thymocyte proliferation (counts per minute) versus untreated control at 0.1 µM: read-out: Percentage Inhibition in LAF Assay at 100 nM concentration, Analogs
Description: Briefly, cells from the thymus of normal BALB/c mice were cultured for 72 hours with PHA and IL-1 and pulsed with tritiated thymidine during the last six hours. Cells are cultured with and without various concentrations of rapamycin, cyclospofin A, or test compound. Cells are harvested and incorporated; radioactivity is determined. Inhibition of lymphoproliferation is assessed in percent change in counts per minute from non-drug treated controls.

[2] = system: pinch skin graft from male BALB/c donors transplanted to male C3H recipients; assay: skin graft assay (survival time of pinch skin graft); assay type: in vivo, mouse (BALB/c donors; conditions: intraperitoneally once daily for 6 consecutive days; rejection = 95% area necrosis or suture line off; typically rejected within 6-7 days without immunosuppressive agent
Description: The second in vivo test procedure is designed to determine the survival time of pinch skin graft from male BALB/c donors transplanted to male C3H recipients. The method is adapted from Billingham R. E. and Medawar P. B., J. Exp. Biol. 28:385-402, (1951). Briefly, a pinch skin graft from the donor is grafted on the dorsum of the recipient as an allograft and an isograft is used as control in the same region. The recipients are treated with the test compound, intraperitoneally once daily for 6 consecutive days. Untreated recipients serve as rejection control. The graft is monitored daily and observations are recorded until the graft becomes 95% area necrosis or the suture line is off. This is considered as the rejection day. The graft survival time is one day before the rejection day. The mean graft survival time (number of days ±S.D.) of the drug treatment group is compared with the control group.

[3] = system: Candida albicans; conditions: particularly against Candida albicans, both in vitro and in vivo; cited from earlier work
[4] = alone or in combination with picibanil; cited from earlier work
[5] = system: experimental allergic encephalomyelitis model, a model for multiple sclerosis; conditions: in vivo; cited from earlier work
[6] = system: adjuvant arthritis model, a model for rheumatoid arthritis; conditions: in vivo; cited from earlier work
[7] = system: formation of IgE-like antibodies; conditions: cited from earlier work

Compound	percent change in thymocyte proliferation (counts per minute) versus untreated control at 0.01 µM ([1]; 10 nM)	percent change in thymocyte proliferation (counts per minute) versus untreated control at 0.1 µM ([1]; 100 nM)	Skin Graft Assay, Analogs (mean graft survival time, days ± SD) [2]	also measured
CO[C@H]1C[C@@H]2CC[C@@H](C)[C@@](O)(O2)C(=O)C(=O)N2CCCC[C@H]2C(=O)O[C@H]([C@H](C)C[C@@H]2CC[C@@H](OC(=O)NS(=O)(=O)c3ccccc3)[C@H](OC)C2)CC(=O)[C@H](C)/C=C(\C)[C@@H](OC(=O)CN(C)C)[C@@H](OC)C(=O)[C@H](C)C[C@H](C)/C=C/C=C/C=C/1C [Example 5, Rapamycin 31-Ester With N,N-dimethylglycine HCl Salt 42-Ester With Phenylsulfonyl Carbamic Acid]	1%	-35%	10.00 ± 0.57 days	
CO[C@H]1C[C@@H]2CC[C@@H](C)[C@@](O)(O2)C(=O)C(=O)N2CCCC[C@H]2C(=O)O[C@H]([C@H](C)C[C@@H]2CC[C@@H](O)[C@H](OC)C2)CC(=O)[C@H](C)/C=C(\C)[C@@H](O)[C@@H](OC)C(=O)[C@H](C)C[C@H](C)/C=C/C=C/C=C/1C [Rapamycin]				Percentage Inhibition in LAF Assay at 10 nM concentration, Rapamycin ([1]; 10 nM, rapamycin comparator): -85% and -89%; Percentage Inhibition in LAF Assay at 100 nM concentration, Rapamycin ([1]; 100 nM, rapamycin comparator, 0.1 µM): -97% and -96% and -94% and -95%; antifungal activity [3]: antifungal activity; antitumor activity [4]: antitumor activity; effect in the experimental allergic encephalomyelitis model [5]: effective; effect in the adjuvant arthritis model [6]: effective; inhibition of the formation of IgE-like antibodies [7]: effectively inhibited
CO[C@H]1C[C@@H]2CC[C@@H](C)[C@@](O)(O2)C(=O)C(=O)N2CCCC[C@H]2C(=O)O[C@H]([C@H](C)C[C@@H]2CC[C@@H](OC(C)=O)[C@H](OC)C2)CC(=O)[C@H](C)/C=C(\C)[C@@H](OC(=O)CN(C)C)[C@@H](OC)C(=O)[C@H](C)C[C@H](C)/C=C/C=C/C=C/1C [Example 2, Rapamycin 31-Ester With N,N-dimethylglycine HCl Salt 42-Ester With Acetic Acid]	-59%	-96%		
CO[C@H]1C[C@@H]2CC[C@@H](C)[C@@](O)(O2)C(=O)C(=O)N2CCCC[C@H]2C(=O)O[C@H]([C@H](C)C[C@@H]2CC[C@@H](OC(=O)Nc3ccccc3)[C@H](OC)C2)CC(=O)[C@H](C)/C=C(\C)[C@@H](OC(=O)CN(C)C)[C@@H](OC)C(=O)[C@H](C)C[C@H](C)/C=C/C=C/C=C/1C [Example 3, Rapamycin 31-Ester With N,N-dimethylglycine HCl Salt 42-Ester With Phenylcarbamic Acid]	-14%	-82%		
CO[C@H]1C[C@@H]2CC[C@@H](C)[C@@](O)(O2)C(=O)C(=O)N2CCCC[C@H]2C(=O)O[C@H]([C@H](C)C[C@@H]2CC[C@@H](OS(=O)(=O)c3cccc4cccnc34)[C@H](OC)C2)CC(=O)[C@H](C)/C=C(\C)[C@@H](OC(=O)CN(C)C)[C@@H](OC)C(=O)[C@H](C)C[C@H](C)/C=C/C=C/C=C/1C [Example 7, Rapamycin 31-Ester With N,N-dimethylglycine 42-Ester With 8-quinolinesulfonic Acid]	-62%	-94%	9.33 ± 1.22 days	
CO[C@H]1C[C@@H]2CC[C@@H](C)[C@@](O)(O2)C(=O)C(=O)N2CCCC[C@H]2C(=O)O[C@H]([C@H](C)C[C@@H]2CC[C@@H](O)[C@H](OC)C2)CC(=O)[C@H](C)/C=C(\C)[C@@H](OC(=O)CN(C)C)[C@@H](OC)C(O)[C@H](C)C[C@H](C)/C=C/C=C/C=C/1C (stereo partly drawn) [Example 6, 33-Deoxy-33-hydroxyrapamycin 31-Ester With N,N-dimethylglycine HCl Salt]	-13%	-76%	9.50 ± 1.22 days	
CO[C@H]1C[C@@H]2CC[C@@H](C)[C@@](O)(O2)C(=O)C(=O)N2CCCC[C@H]2C(=O)O[C@H]([C@H](C)C[C@@H]2CC[C@@H](OS(=O)(=O)c3cccc4c(N(C)C)cccc34)[C@H](OC)C2)CC(=O)[C@H](C)/C=C(\C)[C@@H](OC(=O)CN(C)C)[C@@H](OC)C(=O)[C@H](C)C[C@H](C)/C=C/C=C/C=C/1C [Example 8, Rapamycin 31-Ester With N,N-dimethylglycine 42-Ester With 5-(dimethylamino)naphthalene-1-sulfonic Acid]	13%	-54%		
CO[C@H]1C[C@@H]2CC[C@@H](C)[C@@](O)(O2)C(=O)C(=O)N2CCCC[C@H]2C(=O)O[C@H]([C@H](C)C[C@@H]2CC[C@@H](OS(=O)(=O)c3ccc(C)cc3)[C@H](OC)C2)CC(=O)[C@H](C)/C=C(\C)[C@@H](OC(=O)CN(C)C)[C@@H](OC)C(=O)[C@H](C)C[C@H](C)/C=C/C=C/C=C/1C [Example 1, Rapamycin 31-Ester With N,N-dimethylglycine HCl Salt 42-Ester With p-toluenesulfonic Acid]	-6%	-74%		
CO[C@H]1C[C@@H]2CC[C@@H](C)[C@@](O)(O2)C(=O)C(=O)N2CCCC[C@H]2C(=O)O[C@H]([C@H](C)C[C@@H]2CC[C@@H](OC(=O)Nc3ccc(F)cc3)[C@H](OC)C2)CC(=O)[C@H](C)/C=C(\C)[C@@H](OC(=O)CN(C)C)[C@@H](OC)C(=O)[C@H](C)C[C@H](C)/C=C/C=C/C=C/1C [Example 4, Rapamycin 31-Ester With N,N-dimethylglycine HCl Salt 41-Ester With 4-fluorophenyl Carbamic Acid]	-38%	-94%	8.17 ± 0.41 days	
